Here are results for seven substances from US4656250A, “[Nle^8, Nle^18, Tyr^34 or Phe^34 ]-h-PTH peptide derivatives” (Toyo Jozo Kabushiki Kaisha, priority 1983, dated 1987).

For series [1] the following is noted: cited from earlier work; for PTH / hormonal activity compared with natural h-PTH: prior art, Jap. Pat. Unexam. Publ. No. 55-113753.
The target of the next series is T1, PTH receptor (Rattus norvegicus, UniProt P25961).
T1 construct: A surface membrane was removed, and the renal cortex carved out and ice-cooled; from tissue; host or cells: rat (SD, male) renal cortex, crude membrane fraction (2200 x g precipitate)
T1 sequence (P25961 27-591): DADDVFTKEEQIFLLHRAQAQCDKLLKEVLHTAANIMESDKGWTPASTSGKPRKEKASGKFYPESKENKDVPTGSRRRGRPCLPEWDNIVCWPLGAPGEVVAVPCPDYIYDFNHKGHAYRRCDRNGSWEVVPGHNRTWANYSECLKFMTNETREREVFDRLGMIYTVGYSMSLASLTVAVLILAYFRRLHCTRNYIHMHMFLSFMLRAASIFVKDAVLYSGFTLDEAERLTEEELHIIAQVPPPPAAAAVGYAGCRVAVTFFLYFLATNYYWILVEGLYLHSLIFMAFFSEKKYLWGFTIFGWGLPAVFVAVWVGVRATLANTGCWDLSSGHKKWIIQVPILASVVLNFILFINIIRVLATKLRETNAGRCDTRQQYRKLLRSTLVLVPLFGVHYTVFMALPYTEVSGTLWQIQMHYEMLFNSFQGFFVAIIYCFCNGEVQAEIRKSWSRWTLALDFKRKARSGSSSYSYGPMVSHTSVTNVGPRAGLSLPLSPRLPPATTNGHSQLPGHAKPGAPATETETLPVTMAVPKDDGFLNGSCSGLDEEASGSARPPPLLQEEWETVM
Put plainly: Assay of PTH activity: c-AMP generated on reaction with rat renal cortex PTH receptor preparation, parallel line assay against standard bovine PTH(1-34). Format: biochemical. The note with it: for PTH Activity After Labelling with 125I: after labelling with iodine-125 (chloramine T); for PTH Activity After Labelling with 125I / PTH Activity: rat renal cortex PTH receptor, c-AMP generation; for PTH Activity: unlabelled sample, vs standard bovine PTH(1-34); for h-PTH activity, times stronger than known h-PTH(1-34) and [Nle8, Nle18]-h-PTH(1-34): compared with h-PTH(1-34) and [Nle8, Nle18]-h-PTH(1-34). The protocol: (1) Preparation of PTH receptor:
Rats, strain SD, male, weight 200-250 g, were decollated to bleed, laparotomized and excised of kidneys. A surface membrane was removed, and the renal cortex carved out and ice-cooled. The following operations should be carried out at a temperature as low as possible (0°-4° C.).
The renal cortex was immersed in a solution (hereinafter designated as solution A) of 10 mM Tris-HCl buffer (pH 7.5) containing 0.25 M sucrose and lmM EDTA. Three times the volume of solution A (ml) suspending the renal cortex (wet weight) was added to a renal cortex in a glass tube with Tefron (trade name) pestle and homogenized.
A homogenate was centrifuged for 10 minutes at 150×g, and the supernatant solution was further centrifuged for 15 mins. at 2200×g. The supernatant solution was discarded and the upper emulsion part of precipitate was suspended in a solution A. The said emulsion was centrifuged for 15 mins. at 2200×g. The precipitate was again suspended and frozen at -70° C. in a bottle stored at -20° C.
(2) Reaction with PTH and PTH-receptor:
Specimen was dissolved in 100 mM Tris-HCl buffer (ph 7.5) containing ATP-Mg 2 mM, MgCl2 10 mM, KCl 60 mM, GTP 20 μM, isobutyl methyl xanthine 1 mM, creatine phosphate 8 mM and bovine serum albumin (BSA) 0.2% to prepare 2 μg/ml and 10 μg/ml solutions. Standard bovine PTH(1-34) solution was also prepared in the same manner.
The above solutions [2 μg/ml and 10 μg/ml specimen] and bovine PTH(1-34) (50 μl) were each divided among eight glass test tubes, and kept in ice water in order to prevent ATP […] and to prepare test solutions. A stock solution of PTH receptor stored at -20° C. was thawed to room temperature. Creatine kinase, previously dissolved in solution A, was added thereto to prepare creatine kinase at 0.1 mg/ml and PTH receptor at 1.4 mg/ml as protein by adding solution A while keeping the solution in ice cooling. After the above test solutions were preincubated at 37° C. for several minutes, the PTH receptor-creatine kinase solution (each 50 μl) was added therein and incubated at 37° C. for 10 mins. 0.1 M acetate buffer (pH 4.0, 100 μl) was added, the mixture immediately placed in ice-water, and the tube heated in boiling water for one minute to stop the reaction.
(3) Assay of generated c-AMP:
Distilled water was added to the above reaction-stopped solution to 10-30 times dilution, and deproteinized by centrifugation for 15 mins. at 2000×g. An amount of c-AMP in a supernatant solution was assayed by RIA-kit (YASAMA SHOYU CO.)
(4) Determination of PTH activity:
The measured values of c-AMP hereinabove were converted to a unit of pM (pico mole)/mg PTH receptor-protein/minute as a designation of measured value. The measured value of the specimen was compared to the standard substance according to a parallel assay line two by two.

The next series has as its system PTH receptors. The experiment in a line: Affinity for PTH receptors (statement, no method given). Format: binding. The conditions noted are these: in words.

Regarding [Nle^8, Nle^18, Tyr^34 ]-h-PTH(1-34), in series [1], the “PTH / hormonal activity compared with natural h-PTH” value is “only approximately equal to that of natural h-PTH(1-34)”. Besides, at PTH receptor, the “PTH Activity After Labelling with 125I” value is recorded as 2480 U/mg and the “PTH Activity” value came to 2930 U/mg.

Turning to [Nle^8, Nle^18, Phe^34 ]-h-PTH(1-34)NH2, in the series with PTH receptors, the “affinity for PTH receptors compared with known h-PTH(1-34) and [Nle8, Nle18]-h-PTH(1-34)” value is “stronger affinity”. Besides, at PTH receptor, the “h-PTH activity, times stronger than known h-PTH(1-34) and [Nle8, Nle18]-h-PTH(1-34)” value is 1.5-2 times; the “PTH Activity” value was 5000 U/mg.

“h-PTH: sample of the activity table; human parathyroid hormone, probably the h-PTH(1-34) fragment labelled in b29”: in the series with PTH receptor, the “PTH Activity After Labelling with 125I” value was above 100 U/mg and the “PTH Activity” value stood at 3000 U/mg.

“h-PTH(1-34) (SVSEIQLMHNLGKHLNSMERVEWLRKKLQDVHNF; Parathyroid hormone; UniProt P01270 32-65, looked up, fragment) [34-amino acid N-terminal fragment of human parathyroid hormone]”: the “hormonal activity when labelled with iodine-125” value in series [1] (methionine at position-8 and -18 is oxidized) is recorded as “loses hormonal activity”.

For [Nle^8, Nle^18 ]-h-PTH(1-34), the “PTH / hormonal activity compared with natural h-PTH” value in series [1] is reported as “approximately equal to but no more than that of natural h-PTH”.

As for h-PTH(1-34)NH2, in the series with PTH receptor, the “PTH Activity After Labelling with 125I” value was above 150 U/mg and the “PTH Activity” value worked out at 5100 U/mg.

For [Nle^8, Nle^18, Tyr^34 ]-h-PTH(1-34)NH2, the “affinity for PTH receptors compared with known h-PTH(1-34) and [Nle8, Nle18]-h-PTH(1-34)” value with PTH receptors is given as “stronger affinity”. In addition, at PTH receptor (after labelling with iodine-125), the “PTH activity after labelling (in words)” value is given as “retains its PTH activity after labelling”. Besides, at PTH receptor, the “PTH Activity After Labelling with 125I” value was 5000 U/mg; the “h-PTH activity, times stronger than known h-PTH(1-34) and [Nle8, Nle18]-h-PTH(1-34)” value is listed as 1.5-2 times; the “PTH Activity” value is reported as 5030 U/mg. The “biological activity in long term storage” value on PTH receptor (labelled peptide, long term storage) is reported as “retains its biological activity in long term storage”.
